Measurements from paper PMC8401035, “Synthesis and In Vitro Characterization of Glycopeptide Drug Candidates Related to PACAP1–23” (Molecules, 2021).
Read-outs that look alike come from different tables or passages of the source. Non-standard residues stand in square brackets, D forms with d. Residues, ends and D or L forms follow the SMILES beside them. *: point of attachment. X1 = OC[C@H]1O[C@@H](O[C@H]2[C@H](O)[C@@H](O)[C@H](*)O[C@@H]2CO)[C@H](O)[C@@H](O)[C@H]1O; Nva = CCC[C@H](N)C(=O)O; Sar = CNCC(=O)O

Legend:
human PAC1 = target: T1, human PAC1 (Homo sapiens, UniProt P41586); test: cAMP accumulation assay in PAC1-CHO cells; type: cell-based; settings: for EC50: cAMP stimulation, CHO cells stably expressing human PAC1, 500 μM IBMX, 10 min agonist at 37 °C, 3H-cAMP/PKA competition read-out, Table 3, control has two values (two experiments)
T1 construct: 3xHA (N)
T1 sequence (P41586 21-468): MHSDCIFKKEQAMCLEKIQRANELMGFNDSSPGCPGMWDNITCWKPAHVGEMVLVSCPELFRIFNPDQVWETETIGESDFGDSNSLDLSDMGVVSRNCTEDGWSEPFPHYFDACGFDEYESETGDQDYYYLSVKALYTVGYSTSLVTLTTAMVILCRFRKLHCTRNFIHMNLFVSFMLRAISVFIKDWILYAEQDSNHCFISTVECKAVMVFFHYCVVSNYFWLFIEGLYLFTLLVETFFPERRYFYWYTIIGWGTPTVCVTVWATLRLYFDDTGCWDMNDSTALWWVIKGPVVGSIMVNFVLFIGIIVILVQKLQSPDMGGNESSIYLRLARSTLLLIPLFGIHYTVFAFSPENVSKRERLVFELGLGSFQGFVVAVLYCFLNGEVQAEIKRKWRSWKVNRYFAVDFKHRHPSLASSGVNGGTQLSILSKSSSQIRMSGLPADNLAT
Experimental: In Vitro cAMP Accumulation
(§1) DMEM:F12 (1:1)medium, incubated
(§2) Serial dilutions of different

human VPAC2 = target: T2, human VPAC2 (Homo sapiens, UniProt P41587); test: cAMP accumulation assay in VPAC2-CHO cells; type: cell-based
T2 construct: 3xHA (N)
T2 sequence (P41587 24-438): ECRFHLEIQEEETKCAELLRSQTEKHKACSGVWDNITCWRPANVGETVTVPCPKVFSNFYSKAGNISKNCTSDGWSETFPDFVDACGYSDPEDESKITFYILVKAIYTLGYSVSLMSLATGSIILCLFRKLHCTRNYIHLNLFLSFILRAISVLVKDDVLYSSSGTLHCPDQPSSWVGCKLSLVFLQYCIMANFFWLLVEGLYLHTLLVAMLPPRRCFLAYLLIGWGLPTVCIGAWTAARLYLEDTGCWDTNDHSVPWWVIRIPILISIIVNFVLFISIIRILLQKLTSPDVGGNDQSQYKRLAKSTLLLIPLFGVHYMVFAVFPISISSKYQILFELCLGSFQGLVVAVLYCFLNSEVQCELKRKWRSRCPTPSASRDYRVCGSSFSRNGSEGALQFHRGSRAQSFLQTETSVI
Experimental: as §1, §2

human VPAC1 = target: T3, human VPAC1 (Homo sapiens, UniProt P32241); test: cAMP accumulation assay in VPAC1-CHO cells; settings: for Emax: read-out: VPAC1 EMAX
T3 sequence (P32241 31-457): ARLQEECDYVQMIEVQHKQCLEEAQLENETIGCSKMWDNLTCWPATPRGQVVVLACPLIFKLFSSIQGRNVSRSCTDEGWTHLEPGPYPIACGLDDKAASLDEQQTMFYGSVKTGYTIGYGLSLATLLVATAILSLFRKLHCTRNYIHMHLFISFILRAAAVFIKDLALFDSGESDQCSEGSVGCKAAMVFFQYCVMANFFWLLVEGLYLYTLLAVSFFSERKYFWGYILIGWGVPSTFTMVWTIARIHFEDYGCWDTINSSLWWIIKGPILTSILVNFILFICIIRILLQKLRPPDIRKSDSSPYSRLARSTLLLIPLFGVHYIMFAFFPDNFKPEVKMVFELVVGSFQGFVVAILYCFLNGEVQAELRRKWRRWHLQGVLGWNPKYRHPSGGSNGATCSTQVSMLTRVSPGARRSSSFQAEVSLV

[1] = HA-VPAC2-CHO passage #28, 20,000 cells/well, dilutions from 10 uM, single experiment in duplicate, supplement page S13, read-out: VPAC2-CHO EC50(nM), supplement curve fit
[2] = cAMP stimulation, CHO cells stably expressing human VPAC2, 500 μM IBMX, 10 min agonist at 37 °C, Table 3, NC = No convergence, read-out: VPAC2 EC50

SMILES	Emax (human PAC1) [%]	EC50 (human PAC1) [µM]	Emax (human VPAC2) [%]	EC50 (human VPAC2; [1]) [nM]	EC50 (human VPAC1) [µM]	Emax (human VPAC1) [%]	selectivity for PAC1 over VPAC1 (human PAC1; ratio of cAMP EC50 values (VPAC1/PAC1))	selectivity for PAC1 over VPAC2 (human PAC1; ratio of cAMP EC50 values (VPAC2/PAC1))	EC50 (human VPAC2; [2]) [nM]
CCC[C@H](NC(=O)[C@H](CCC(N)=O)NC(=O)[C@H](CCCCN)NC(=O)[C@H](CCCNC(=N)N)NC(=O)[C@H](Cc1ccc(O)cc1)NC(=O)[C@H](CCCNC(=N)N)NC(=O)[C@H](CO)NC(=O)[C@H](Cc1ccc(O)cc1)NC(=O)[C@H](CO)NC(=O)[C@H](CC(=O)O)NC(=O)[C@@H](NC(=O)[C@H](Cc1ccccc1)NC(=O)[C@@H](NC(=O)CNC(=O)[C@H](CC(=O)O)NC(=O)[C@H](CO)NC(=O)[C@@H](N)Cc1c[nH]cn1)[C@@H](C)CC)[C@@H](C)O)C(=O)N[C@@H](C)C(=O)N[C@H](C(=O)N[C@@H](CCCCN)C(=O)N[C@@H](CCCCN)C(=O)N[C@@H](Cc1ccc(O)cc1)C(=O)N[C@@H](CC(C)C)C(=O)N[C@@H](CO)C(N)=O)C(C)C [Compound 1]	198	0.0022	111	576	0.0052	42			
CCC[C@H](NC(=O)[C@H](CCC(N)=O)NC(=O)[C@H](CCCCN)NC(=O)[C@H](CCCNC(=N)N)NC(=O)[C@H](Cc1ccc(O)cc1)NC(=O)[C@H](CCCNC(=N)N)NC(=O)[C@H](CO)NC(=O)[C@H](Cc1ccc(O)cc1)NC(=O)[C@H](CO)NC(=O)[C@H](CC(=O)O)NC(=O)[C@@H](NC(=O)[C@H](Cc1ccccc1)NC(=O)[C@@H](NC(=O)CNC(=O)[C@H](CC(=O)O)NC(=O)[C@H](CO)NC(=O)[C@@H](N)Cc1c[nH]cn1)[C@@H](C)CC)[C@@H](C)O)C(=O)N[C@@H](C)C(=O)N[C@H](C(=O)N[C@@H](CCCCN)C(=O)N[C@@H](CCCCN)C(=O)N[C@@H](Cc1ccc(O)cc1)C(=O)N[C@@H](CC(C)C)C(=O)N[C@@H](CO[C@@H]1O[C@H](CO)[C@@H](O)[C@H](O)[C@H]1O)C(N)=O)C(C)C [Compound 2]	181	0.00064	110	577	0.037	104	~ 58 fold	~ 886 fold	
CCC[C@H](NC(=O)[C@H](CCC(N)=O)NC(=O)[C@H](CCCCN)NC(=O)[C@H](CCCNC(=N)N)NC(=O)[C@H](Cc1ccc(O)cc1)NC(=O)[C@H](CCCNC(=N)N)NC(=O)[C@H](CO)NC(=O)[C@H](Cc1ccc(O)cc1)NC(=O)[C@H](CO)NC(=O)[C@H](CC(=O)O)NC(=O)[C@@H](NC(=O)[C@H](Cc1ccccc1)NC(=O)[C@@H](NC(=O)CNC(=O)[C@H](CC(=O)O)NC(=O)[C@H](CO)NC(=O)[C@@H](N)Cc1c[nH]cn1)[C@@H](C)CC)[C@@H](C)O)C(=O)N[C@@H](C)C(=O)N[C@H](C(=O)N[C@@H](CCCCN)C(=O)N[C@@H](CCCCN)C(=O)N[C@@H](Cc1ccc(O)cc1)C(=O)N[C@@H](CC(C)C)C(=O)N[C@@H](CO[C@@H]1O[C@H](CO)[C@@H](O)[C@H](O)[C@H]1O)C(=O)N[C@@H](CO[C@@H]1O[C@H](CO)[C@@H](O)[C@H](O)[C@H]1O)C(N)=O)C(C)C [Compound 3]	152	0.0019	128		0.026	147			7370
CCC[C@H](NC(=O)[C@H](CCC(N)=O)NC(=O)[C@H](CCCCN)NC(=O)[C@H](CCCNC(=N)N)NC(=O)[C@H](Cc1ccc(O)cc1)NC(=O)[C@H](CCCNC(=N)N)NC(=O)[C@H](CO)NC(=O)[C@H](Cc1ccc(O)cc1)NC(=O)[C@H](CO)NC(=O)[C@H](CC(=O)O)NC(=O)[C@@H](NC(=O)[C@H](Cc1ccccc1)NC(=O)[C@@H](NC(=O)CNC(=O)[C@H](CC(=O)O)NC(=O)[C@H](CO)NC(=O)[C@@H](N)Cc1c[nH]cn1)[C@@H](C)CC)[C@@H](C)O)C(=O)N[C@@H](C)C(=O)N[C@H](C(=O)N[C@@H](CCCCN)C(=O)N[C@@H](CCCCN)C(=O)N[C@@H](Cc1ccc(O)cc1)C(=O)N[C@@H](CC(C)C)C(=O)N[C@@H](CO[C@@H]1O[C@H](CO)[C@@H](O[C@@H]2O[C@H](CO)[C@H](O)[C@H](O)[C@H]2O)[C@H](O)[C@H]1O)C(N)=O)C(C)C [Compound 4]	174	0.0018	169		0.021	118			1940
CCC[C@H](NC(=O)[C@H](CCC(N)=O)NC(=O)[C@H](CCCCN)NC(=O)[C@H](CCCNC(=N)N)NC(=O)[C@H](Cc1ccc(O)cc1)NC(=O)[C@H](CCCNC(=N)N)NC(=O)[C@H](CO)NC(=O)[C@H](Cc1ccc(O)cc1)NC(=O)[C@H](CO)NC(=O)[C@H](CC(=O)O)NC(=O)[C@@H](NC(=O)[C@H](Cc1ccccc1)NC(=O)[C@@H](NC(=O)[C@H](C)NC(=O)[C@H](CC(=O)O)NC(=O)[C@H](CO)NC(=O)[C@@H](N)Cc1c[nH]cn1)[C@@H](C)CC)[C@@H](C)O)C(=O)N[C@@H](C)C(=O)N[C@H](C(=O)N[C@@H](CCCCN)C(=O)N[C@@H](CCCCN)C(=O)N[C@@H](Cc1ccc(O)cc1)C(=O)N[C@@H](CC(C)C)C(=O)N[C@@H](CO[C@@H]1O[C@H](CO)[C@@H](O[C@@H]2O[C@H](CO)[C@H](O)[C@H](O)[C@H]2O)[C@H](O)[C@H]1O)C(N)=O)C(C)C [Compound 5]	181	0.007	139		0.038	124			321
CCC[C@H](NC(=O)[C@H](CCC(N)=O)NC(=O)[C@H](CCCCN)NC(=O)[C@H](CCCNC(=N)N)NC(=O)[C@H](Cc1ccc(O)cc1)NC(=O)[C@H](CCCNC(=N)N)NC(=O)[C@H](CO)NC(=O)[C@H](Cc1ccc(O)cc1)NC(=O)[C@H](CO)NC(=O)[C@H](CC(=O)O)NC(=O)[C@@H](NC(=O)[C@H](Cc1ccccc1)NC(=O)[C@@H](NC(=O)CN(C)C(=O)[C@H](CC(=O)O)NC(=O)[C@H](CO)NC(=O)[C@@H](N)Cc1c[nH]cn1)[C@@H](C)CC)[C@@H](C)O)C(=O)N[C@@H](C)C(=O)N[C@H](C(=O)N[C@@H](CCCCN)C(=O)N[C@@H](CCCCN)C(=O)N[C@@H](Cc1ccc(O)cc1)C(=O)N[C@@H](CC(C)C)C(=O)N[C@@H](CO[C@@H]1O[C@H](CO)[C@@H](O[C@@H]2O[C@H](CO)[C@H](O)[C@H](O)[C@H]2O)[C@H](O)[C@H]1O)C(N)=O)C(C)C [Compound 6] (H-HSD[Sar]IFTDSYSRYRKQ[Nva]AVKKYLS(X1)-NH2)	134	0.067			0.195	107			
